Data: PubChem BioAssay (NCI)
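A five-concentration, 48-hour dose response in 96-well plates underlies each endpoint, interpolated linearly between surrounding concentrations. TGI marks complete inhibition of growth.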

How the values were obtained:
Assay in all cases: NCI anticancer screen, dose series, 48 h
SK-OV-3 ovarian = test system: SK-OV-3 ovarian
M14 melanoma = test system: M14 melanoma
HCC-2998 colon = test system: HCC-2998 colon
RXF 393 renal = test system: RXF 393 renal
ACHN renal = test system: ACHN renal
EKVX NSCLC = test system: EKVX NSCLC
CCRF-CEM leukemia = test system: CCRF-CEM leukemia
LOX IMVI melanoma = test system: LOX IMVI melanoma
SK-MEL-5 melanoma = test system: SK-MEL-5 melanoma
U251 CNS = test system: U251 CNS
HL-60(TB) leukemia = test system: HL-60(TB) leukemia
OVCAR-4 ovarian = test system: OVCAR-4 ovarian
SF-539 CNS = test system: SF-539 CNS
DU-145 prostate = test system: DU-145 prostate
MDA-N = test system: MDA-N
T-47D breast = test system: T-47D breast

Row | SMILES | TGI (SK-OV-3 ovarian) [µM] | TGI (M14 melanoma) [µM] | TGI (HCC-2998 colon) [µM] | TGI (RXF 393 renal) [µM] | TGI (ACHN renal) [µM] | TGI (EKVX NSCLC) [µM] | TGI (CCRF-CEM leukemia) [µM] | TGI (LOX IMVI melanoma) [µM] | TGI (SK-MEL-5 melanoma) [µM] | TGI (U251 CNS) [µM] | TGI (HL-60(TB) leukemia) [µM] | TGI (OVCAR-4 ovarian) [µM] | TGI (SF-539 CNS) [µM] | TGI (DU-145 prostate) [µM] | TGI (MDA-N) [µM] | TGI (T-47D breast) [µM]
1 | CCOC(=O)C1=C(C)C2C3C(=O)NC(=O)C3C1(C)C1C(=O)NC(=O)C21 (stereo not given) | > 100 | > 100 | > 100 | > 100 | > 100 | > 100 | > 100 | > 100 | > 100 | > 100 | > 100 | > 100 | > 100 | – | – | –
2 | Clc1ccc2c(Cl)ncnc2c1I | > 100 | > 100 | > 100 | > 100 | – | 99.4 | – | > 100 | > 100 | > 100 | 44.6 | > 100 | – | – | – | –
3 | Cc1ccc2nc(CN3CCCCC3)cc(=O)n2c1 | > 100 | > 100 | > 100 | – | > 100 | > 100 | > 100 | > 100 | – | > 100 | > 100 | > 100 | > 100 | > 100 | – | –
4 | NC(=S)Nc1nnc(-c2ccc(-c3nnc(NC(N)=S)o3)cc2)o1 | > 100 | > 100 | > 100 | > 100 | > 100 | > 100 | > 100 | > 100 | > 100 | > 100 | > 100 | > 100 | > 100 | – | – | –
5 | CC(C)(C)c1cc(N=NC(=S)NCc2ccccc2)cc(C(C)(C)C)c1O | – | > 100 | > 100 | > 100 | > 100 | > 100 | > 100 | > 100 | > 100 | > 100 | > 100 | > 100 | > 100 | – | – | –
6 | Cn1c(=S)[nH]c2c(Cl)cc(Cl)cc2c1=O | > 100 | > 100 | > 100 | > 100 | > 100 | > 100 | 64.7 | > 100 | > 100 | > 100 | 78.8 | > 100 | > 100 | > 100 | > 100 | –
7 | O=S(=O)([N-]c1nc2ccccc2nc1-[n+]1ccccc1)c1ccccc1 | > 100 | > 100 | > 100 | > 100 | > 100 | > 100 | 30.7 | > 100 | > 100 | – | 72.6 | > 100 | > 100 | – | – | > 100
8 | COc1cc(/C=C2\CCC(C)c3c2nc(N)c(C#N)c3-c2cc(OC)c(OC)c(OC)c2)cc(OC)c1OC (stereo not given) | > 100 | > 100 | – | > 100 | > 100 | > 100 | > 100 | > 100 | > 100 | > 100 | > 100 | 78.1 | – | > 100 | > 100 | –
9 | CC1C(c2ccccc2)=CCON1c1ccccc1 (stereo not given) | > 100 | > 100 | > 100 | > 100 | > 100 | > 100 | > 100 | > 100 | > 100 | > 100 | > 100 | > 100 | > 100 | – | – | –
10 | BrC12C3C4C5C(C(C43)C13OCCO3)C52 (stereo not given) | > 100 | – | > 100 | > 100 | > 100 | > 100 | > 100 | > 100 | > 100 | > 100 | > 100 | – | > 100 | – | – | –
11 | Cc1cccc(NC(=O)CSc2nnc(Cc3ccccc3)o2)c1 | > 100 | > 100 | > 100 | > 100 | > 100 | > 100 | > 100 | > 100 | > 100 | > 100 | > 100 | > 100 | > 100 | – | – | –
12 | [N-]=[N+]=Nc1cc(=O)n(-c2ccccc2)c(=O)n1-c1ccccc1 | > 100 | > 100 | – | > 100 | > 100 | > 100 | > 100 | – | > 100 | > 100 | – | > 100 | > 100 | – | – | > 100
13 | N=c1oc2cc(O)c(O)cc2cc1C(N)=O | > 100 | > 100 | > 100 | > 100 | > 100 | > 100 | > 100 | > 100 | > 100 | > 100 | – | > 100 | > 100 | – | – | –
14 | O=C(CSc1nnc(-c2ccc(N=Cc3ccc(Cl)cc3)cc2)o1)Nc1ccccc1 | > 100 | > 100 | – | 96.9 | > 100 | > 100 | > 100 | 36.4 | > 100 | > 100 | > 100 | > 100 | – | – | – | –
15 | CN=C1Nc2ccccc2C(=S)N2CSC[C@@H]12 | > 100 | > 100 | > 100 | > 100 | > 100 | – | – | – | > 100 | > 100 | – | > 100 | > 100 | > 100 | – | > 100
16 | c1ccc2c(NCCCCCCCCNc3cccc4ccccc34)cccc2c1 | > 100 | 39.6 | > 100 | – | 80.6 | > 10 | 42.5 | – | > 10 | > 100 | 50.7 | 67.3 | 72.2 | – | – | –
17 | COc1ccccc1NC(=S)Nc1cccc(C)n1 | > 100 | > 100 | – | > 100 | – | > 100 | > 100 | > 100 | > 100 | > 100 | > 100 | > 100 | > 100 | > 100 | – | > 100
18 | Cc1c(C(=O)Nc2ccc(Cl)c(C(F)(F)F)c2)oc2cc(O)ccc2/c1=N\NC(N)=S | > 100 | > 100 | > 100 | > 100 | > 100 | > 100 | > 100 | > 100 | > 100 | > 100 | > 100 | > 100 | > 100 | – | – | –
